Test results: patent publication US11339419B2, “Scavenger protein(s) for improved preservation of analyte detection sensor(s) and method(s) of use thereof” (Siemens Healthcare Diagnostics Inc., priority 2017, dated 2022)
Values joined by “and” are separate entries in the source; they are usually repeats but may differ in a detail not shown here. Identical values can stand only once.

Test system: sarcosine oxidase (Toyobo)
Experiment: Toyobo Sarcosine Oxidase Enzyme Absorbance with BSA and MIT
Format: biochemical
[1] = Day 0, 50 ppm MIT, 50 mg/mL BSA, 37° C.
[2] = Day 4, 5 mg/mL BSA only, no MIT (50 ppm MIT row), 37° C.
[3] = Day 4, 5 mg/mL BSA only, no MIT (100 ppm MIT row), 37° C.
[4] = Day 4, 25 mg/mL BSA only, no MIT (50 ppm MIT row), 37° C.
[5] = Day 4, 25 mg/mL BSA only, no MIT (100 ppm MIT row), 37° C.
[6] = Day 4, 50 mg/mL BSA only, no MIT (50 ppm MIT row), 37° C.
[7] = Day 4, 50 mg/mL BSA only, no MIT (100 ppm MIT row), 37° C.
[8] = Day 14, 5 mg/mL BSA only, no MIT (50 ppm MIT row), 37° C.
[9] = Day 14, 5 mg/mL BSA only, no MIT (100 ppm MIT row), 37° C.
[10] = Day 14, 25 mg/mL BSA only, no MIT (50 ppm MIT row), 37° C.
[11] = Day 14, 25 mg/mL BSA only, no MIT (100 ppm MIT row), 37° C.
[12] = Day 14, 50 mg/mL BSA only, no MIT (50 ppm MIT row), 37° C.
[13] = Day 14, 50 mg/mL BSA only, no MIT (100 ppm MIT row), 37° C.

bovine serum albumin [BSA]
Sarcosine Oxidase Enzyme Absorbance, MEAN of 1-5 [1]: 1.39 | Sarcosine Oxidase Enzyme Absorbance, solutions 1-5 [1]: 1.439 and 1.435 and 1.441 | % Bias (Day 0, 100 ppm MIT vs no MIT, 5 mg/mL BSA): 0.3% | % Bias (Day 0, 100 ppm MIT vs no MIT, 25 mg/mL BSA): −0.7% | % Bias (Day 0, 100 ppm MIT vs no MIT, 50 mg/mL BSA): −1.1% | Sarcosine Oxidase Enzyme Absorbance, MEAN of 1-5 (Day 0, 100 ppm MIT, 5 mg/mL BSA, 37° C.): 1.39 | Sarcosine Oxidase Enzyme Absorbance, MEAN of 1-5 (Day 0, 100 ppm MIT, 25 mg/mL BSA, 37° C.): 1.37 | Sarcosine Oxidase Enzyme Absorbance, MEAN of 1-5 (Day 0, 100 ppm MIT, 50 mg/mL BSA, 37° C.): 1.37 | Sarcosine Oxidase Enzyme Absorbance, MEAN of 7-11 [2]: 0.10 | Sarcosine Oxidase Enzyme Absorbance, replicates 7-11 [2]: 0.251 and 0.247 and 0.255 and 0.261 and 0.267 | Sarcosine Oxidase Enzyme Absorbance, MEAN of 7-11 [3]: 0.79 | Sarcosine Oxidase Enzyme Absorbance, replicates 7-11 [3]: 0.933 and 0.941 and 0.967 and 0.963 | Sarcosine Oxidase Enzyme Absorbance, MEAN of 7-11 [4]: 1.22 | Sarcosine Oxidase Enzyme Absorbance, replicates 7-11 [4]: 1.388 and 1.399 and 1.382 and 1.357 and 1.362 | Sarcosine Oxidase Enzyme Absorbance, MEAN of 7-11 [5]: 1.23 | Sarcosine Oxidase Enzyme Absorbance, replicates 7-11 [5]: 1.366 and 1.381 and 1.402 and 1.382 and 1.388 | Sarcosine Oxidase Enzyme Absorbance, MEAN of 7-11 [6]: 1.24 | Sarcosine Oxidase Enzyme Absorbance, replicates 7-11 [6]: 1.386 and 1.428 and 1.403 and 1.415 and 1.372 | Sarcosine Oxidase Enzyme Absorbance, MEAN of 7-11 [7]: 1.24 | Sarcosine Oxidase Enzyme Absorbance, replicates 7-11 [7]: 1.384 and 1.407 and 1.4 and 1.389 and 1.388 | % Bias (Day 4, 50 ppm MIT vs no MIT, 5 mg/mL BSA): 775.9% | % Bias (Day 4, 50 ppm MIT vs no MIT, 25 mg/mL BSA): 11.9% | % Bias (Day 4, 50 ppm MIT vs no MIT, 50 mg/mL BSA): 12.4% | Sarcosine Oxidase Enzyme Absorbance, MEAN of 1-5 (Day 4, 50 ppm MIT, 5 mg/mL BSA, 37° C.): 0.86 | Sarcosine Oxidase Enzyme Absorbance, MEAN of 1-5 (Day 4, 50 ppm MIT, 25 mg/mL BSA, 37° C.): 1.37 | Sarcosine Oxidase Enzyme Absorbance, MEAN of 1-5 (Day 4, 50 ppm MIT, 50 mg/mL BSA, 37° C.): 1.40 | % Bias (Day 4, 100 ppm MIT vs no MIT, 5 mg/mL BSA): 16.5% | % Bias (Day 4, 100 ppm MIT vs no MIT, 25 mg/mL BSA): 10.4% | % Bias (Day 4, 100 ppm MIT vs no MIT, 50 mg/mL BSA): 11.1% | Sarcosine Oxidase Enzyme Absorbance, MEAN of 1-5 (Day 4, 100 ppm MIT, 5 mg/mL BSA, 37° C.): 0.92 | Sarcosine Oxidase Enzyme Absorbance, MEAN of 1-5 (Day 4, 100 ppm MIT, 25 mg/mL BSA, 37° C.): 1.35 | Sarcosine Oxidase Enzyme Absorbance, MEAN of 1-5 (Day 4, 100 ppm MIT, 50 mg/mL BSA, 37° C.): 1.37 | Sarcosine Oxidase Enzyme Absorbance, MEAN of 7-11 [8]: 0.29 | Sarcosine Oxidase Enzyme Absorbance, replicates 7-11 [8]: 0.329 and 0.33 and 0.348 and 0.327 and 0.333 | Sarcosine Oxidase Enzyme Absorbance, MEAN of 7-11 [9]: 0.31 | Sarcosine Oxidase Enzyme Absorbance, replicates 7-11 [9]: 0.342 and 0.353 and 0.351 and 0.382 and 0.368 | Sarcosine Oxidase Enzyme Absorbance, MEAN of 7-11 [10]: 1.36 | Sarcosine Oxidase Enzyme Absorbance, replicates 7-11 [10]: 1.406 and 1.41 and 1.429 and 1.404 and 1.403 | Sarcosine Oxidase Enzyme Absorbance, MEAN of 7-11 [11]: 1.41 | Sarcosine Oxidase Enzyme Absorbance, replicates 7-11 [11]: 1.443 and 1.445 and 1.46 and 1.471 and 1.461 | Sarcosine Oxidase Enzyme Absorbance, MEAN of 7-11 [12]: 1.41 | Sarcosine Oxidase Enzyme Absorbance, replicates 7-11 [12]: 1.436 and 1.456 and 1.449 and 1.465 and 1.488 | Sarcosine Oxidase Enzyme Absorbance, MEAN of 7-11 [13]: 1.42 | Sarcosine Oxidase Enzyme Absorbance, replicates 7-11 [13]: 1.476 and 1.446 and 1.464 and 1.474 and 1.469 | % Bias (Day 14, 50 ppm MIT vs no MIT, 5 mg/mL BSA): 0.3% | % Bias (Day 14, 50 ppm MIT vs no MIT, 25 mg/mL BSA): 1.6% | % Bias (Day 14, 50 ppm MIT vs no MIT, 50 mg/mL BSA): 0.7% | Sarcosine Oxidase Enzyme Absorbance, MEAN of 1-5 (Day 14, 50 ppm MIT, 5 mg/mL BSA, 37° C.): 0.29 | Sarcosine Oxidase Enzyme Absorbance, MEAN of 1-5 (Day 14, 50 ppm MIT, 25 mg/mL BSA, 37° C.): 1.39 | Sarcosine Oxidase Enzyme Absorbance, MEAN of 1-5 (Day 14, 50 ppm MIT, 50 mg/mL BSA, 37° C.): 1.42 | % Bias (Day 14, 100 ppm MIT vs no MIT, 5 mg/mL BSA): −0.8% | % Bias (Day 14, 100 ppm MIT vs no MIT, 25 mg/mL BSA): −0.1% | % Bias (Day 14, 100 ppm MIT vs no MIT, 50 mg/mL BSA): 0.2% | Sarcosine Oxidase Enzyme Absorbance, MEAN of 1-5 (Day 14, 100 ppm MIT, 5 mg/mL BSA, 37° C.): 0.31 | Sarcosine Oxidase Enzyme Absorbance, MEAN of 1-5 (Day 14, 100 ppm MIT, 25 mg/mL BSA, 37° C.): 1.41 | Sarcosine Oxidase Enzyme Absorbance, MEAN of 1-5 (Day 14, 100 ppm MIT, 50 mg/mL BSA, 37° C.): 1.42 | absorbance of the sarcosine oxidase enzyme compared to samples containing 0 mg/mL of BSA (days 4 and 14, 5, 25 and 50 mg/mL BSA, with MIT): increased absorbance | sarcosine oxidase absorbance, solutions 7-11 (days 4 and 14, only BSA, no MIT): increased (or at least maintained)
